Measured values: ChEMBL document CHEMBL1146965, “Pyridone derivatives as potent and selective VLA-4 integrin antagonists” (Bioorg Med Chem Lett, 2006)

Columns and labels:
Format in all cases: cell-based
Integrin alpha-4/beta-1 = Integrin alpha-4/beta-1 (Homo sapiens, UniProt P05556+P13612); experiment: Binding affinity to integrin alpha-4-beta-1 expressed in jurkat J6 cells
Integrin alpha-5/beta-1 = Integrin alpha-5/beta-1 (Homo sapiens, UniProt P05556+P08648); experiment: Binding affinity to integrin alpha-5-beta-1 expressed in jurkat J6 cells
Integrin alpha-V/beta-3 = Integrin alpha-V/beta-3 (Homo sapiens, UniProt P05106+P06756); experiment: Binding affinity to integrin alphavbeta3 expressed in jurkat J6 cells
Chain of Integrin alpha-V/beta-3 (P05106 27-788 limits assumed): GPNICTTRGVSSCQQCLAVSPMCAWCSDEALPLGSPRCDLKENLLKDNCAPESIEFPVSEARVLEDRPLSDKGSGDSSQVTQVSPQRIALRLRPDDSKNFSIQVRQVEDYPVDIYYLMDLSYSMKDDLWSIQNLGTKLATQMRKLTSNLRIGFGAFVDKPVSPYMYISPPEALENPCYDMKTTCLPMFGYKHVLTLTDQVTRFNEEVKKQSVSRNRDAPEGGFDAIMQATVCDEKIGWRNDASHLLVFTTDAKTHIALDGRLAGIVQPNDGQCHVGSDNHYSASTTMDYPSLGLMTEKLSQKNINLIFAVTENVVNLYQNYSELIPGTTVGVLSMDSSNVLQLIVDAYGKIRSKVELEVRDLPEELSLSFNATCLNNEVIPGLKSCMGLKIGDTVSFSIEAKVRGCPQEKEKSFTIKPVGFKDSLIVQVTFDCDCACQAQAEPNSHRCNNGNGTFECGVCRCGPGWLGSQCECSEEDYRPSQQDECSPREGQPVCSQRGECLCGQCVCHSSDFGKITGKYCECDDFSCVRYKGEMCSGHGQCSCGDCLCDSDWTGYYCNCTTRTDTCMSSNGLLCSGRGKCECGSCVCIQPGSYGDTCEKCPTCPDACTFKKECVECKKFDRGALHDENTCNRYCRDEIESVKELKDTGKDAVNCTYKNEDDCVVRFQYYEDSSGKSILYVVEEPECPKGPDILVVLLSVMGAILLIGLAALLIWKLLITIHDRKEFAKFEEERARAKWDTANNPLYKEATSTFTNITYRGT
Chain of Integrin alpha-V/beta-3 (P06756 31-889 partner limits assumed): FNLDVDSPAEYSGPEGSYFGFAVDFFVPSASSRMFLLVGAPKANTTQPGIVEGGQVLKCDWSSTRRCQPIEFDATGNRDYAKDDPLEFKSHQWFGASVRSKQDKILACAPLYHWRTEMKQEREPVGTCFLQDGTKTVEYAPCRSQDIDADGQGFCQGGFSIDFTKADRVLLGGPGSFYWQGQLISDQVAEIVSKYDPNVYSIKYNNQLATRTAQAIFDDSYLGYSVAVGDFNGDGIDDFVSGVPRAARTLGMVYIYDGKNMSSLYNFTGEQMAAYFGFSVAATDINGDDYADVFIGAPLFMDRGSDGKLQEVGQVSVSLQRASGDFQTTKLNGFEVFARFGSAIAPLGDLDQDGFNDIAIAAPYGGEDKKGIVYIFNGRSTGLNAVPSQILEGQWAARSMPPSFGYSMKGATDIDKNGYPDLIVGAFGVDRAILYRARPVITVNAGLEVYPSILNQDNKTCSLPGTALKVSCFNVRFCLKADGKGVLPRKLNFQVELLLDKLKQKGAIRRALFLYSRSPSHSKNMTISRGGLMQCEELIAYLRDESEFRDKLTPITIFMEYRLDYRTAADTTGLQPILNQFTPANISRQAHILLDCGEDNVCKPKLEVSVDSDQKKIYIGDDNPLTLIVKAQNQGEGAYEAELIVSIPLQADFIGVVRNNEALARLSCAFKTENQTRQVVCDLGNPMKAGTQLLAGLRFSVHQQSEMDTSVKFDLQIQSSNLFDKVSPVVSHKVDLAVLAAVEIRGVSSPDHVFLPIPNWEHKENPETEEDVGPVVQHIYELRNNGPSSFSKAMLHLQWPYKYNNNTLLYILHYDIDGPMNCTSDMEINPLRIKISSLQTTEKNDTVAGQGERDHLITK
Chain of Integrin alpha-V/beta-3 (P06756 891-1048 partner limits assumed): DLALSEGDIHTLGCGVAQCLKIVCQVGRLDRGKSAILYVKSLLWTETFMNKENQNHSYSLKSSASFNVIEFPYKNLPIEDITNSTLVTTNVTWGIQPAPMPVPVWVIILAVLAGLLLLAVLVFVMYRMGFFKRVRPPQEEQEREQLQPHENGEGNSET

Integrin alpha-V/beta-6 = Integrin alpha-V/beta-6 (Homo sapiens, UniProt P06756+P18564); experiment: Binding affinity to integrin alpha-v-beta-6 expressed in jurkat J6 cells
Chain of Integrin alpha-V/beta-6 (P06756 31-889 limits assumed): as the sequence (P06756 31-889 partner limits assumed) above
Chain of Integrin alpha-V/beta-6 (P06756 891-1048 limits assumed): as the sequence (P06756 891-1048 partner limits assumed) above
Chain of Integrin alpha-V/beta-6 (P18564 22-788 limits assumed): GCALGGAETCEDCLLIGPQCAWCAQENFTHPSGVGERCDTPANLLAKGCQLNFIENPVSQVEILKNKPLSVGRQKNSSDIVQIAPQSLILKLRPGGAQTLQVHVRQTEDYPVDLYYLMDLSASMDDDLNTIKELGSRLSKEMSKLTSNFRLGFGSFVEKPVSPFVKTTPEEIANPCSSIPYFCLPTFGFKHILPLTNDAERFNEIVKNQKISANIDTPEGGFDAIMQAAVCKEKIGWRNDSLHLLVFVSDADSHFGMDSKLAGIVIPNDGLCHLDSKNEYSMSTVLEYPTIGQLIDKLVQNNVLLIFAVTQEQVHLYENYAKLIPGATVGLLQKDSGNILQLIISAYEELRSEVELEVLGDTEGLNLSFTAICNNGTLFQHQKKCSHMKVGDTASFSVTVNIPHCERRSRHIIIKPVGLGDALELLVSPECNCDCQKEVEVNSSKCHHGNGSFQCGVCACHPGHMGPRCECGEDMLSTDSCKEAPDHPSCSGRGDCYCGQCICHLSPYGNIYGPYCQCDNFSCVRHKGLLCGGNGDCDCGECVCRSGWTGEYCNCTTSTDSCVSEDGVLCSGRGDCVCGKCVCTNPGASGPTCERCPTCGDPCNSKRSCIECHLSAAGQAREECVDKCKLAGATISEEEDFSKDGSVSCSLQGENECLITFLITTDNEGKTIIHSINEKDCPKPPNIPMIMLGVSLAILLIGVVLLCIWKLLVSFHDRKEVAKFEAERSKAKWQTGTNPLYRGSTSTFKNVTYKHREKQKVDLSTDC

Integrin alpha-4/beta-7 = target: T1, Integrin alpha-4/beta-7 (Homo sapiens, UniProt P13612+P26010); experiment: Binding affinity to integrin alpha-4-beta-7 expressed in jurkat J6 cells
T1 sequence (P13612 whole entry): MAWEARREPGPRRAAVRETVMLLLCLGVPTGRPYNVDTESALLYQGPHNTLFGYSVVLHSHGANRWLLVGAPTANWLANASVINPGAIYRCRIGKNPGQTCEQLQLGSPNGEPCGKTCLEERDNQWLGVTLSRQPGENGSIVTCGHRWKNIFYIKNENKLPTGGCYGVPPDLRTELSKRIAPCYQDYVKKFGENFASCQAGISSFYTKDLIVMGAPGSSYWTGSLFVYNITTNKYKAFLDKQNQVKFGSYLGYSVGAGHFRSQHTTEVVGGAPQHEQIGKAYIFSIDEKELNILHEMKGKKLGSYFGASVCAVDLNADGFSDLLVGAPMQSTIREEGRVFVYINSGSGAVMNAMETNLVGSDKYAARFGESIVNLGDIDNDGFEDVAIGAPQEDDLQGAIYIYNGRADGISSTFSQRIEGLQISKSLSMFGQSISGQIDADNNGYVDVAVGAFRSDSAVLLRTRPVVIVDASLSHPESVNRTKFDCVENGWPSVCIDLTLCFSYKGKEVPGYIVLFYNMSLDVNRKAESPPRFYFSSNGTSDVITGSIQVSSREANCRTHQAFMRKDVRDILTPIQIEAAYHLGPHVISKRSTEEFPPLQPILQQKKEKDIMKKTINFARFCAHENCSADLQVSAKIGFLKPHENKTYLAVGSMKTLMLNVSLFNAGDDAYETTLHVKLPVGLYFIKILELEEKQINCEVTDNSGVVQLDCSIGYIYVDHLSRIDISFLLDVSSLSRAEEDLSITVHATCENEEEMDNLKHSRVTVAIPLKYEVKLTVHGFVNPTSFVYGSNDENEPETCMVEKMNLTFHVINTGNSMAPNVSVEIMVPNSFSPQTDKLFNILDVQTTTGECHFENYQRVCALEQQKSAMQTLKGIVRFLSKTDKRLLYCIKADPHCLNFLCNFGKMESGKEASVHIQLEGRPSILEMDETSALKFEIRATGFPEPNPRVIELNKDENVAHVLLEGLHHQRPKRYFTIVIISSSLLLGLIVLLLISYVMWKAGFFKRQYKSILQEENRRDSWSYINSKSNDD
T1 sequence (P26010 whole entry): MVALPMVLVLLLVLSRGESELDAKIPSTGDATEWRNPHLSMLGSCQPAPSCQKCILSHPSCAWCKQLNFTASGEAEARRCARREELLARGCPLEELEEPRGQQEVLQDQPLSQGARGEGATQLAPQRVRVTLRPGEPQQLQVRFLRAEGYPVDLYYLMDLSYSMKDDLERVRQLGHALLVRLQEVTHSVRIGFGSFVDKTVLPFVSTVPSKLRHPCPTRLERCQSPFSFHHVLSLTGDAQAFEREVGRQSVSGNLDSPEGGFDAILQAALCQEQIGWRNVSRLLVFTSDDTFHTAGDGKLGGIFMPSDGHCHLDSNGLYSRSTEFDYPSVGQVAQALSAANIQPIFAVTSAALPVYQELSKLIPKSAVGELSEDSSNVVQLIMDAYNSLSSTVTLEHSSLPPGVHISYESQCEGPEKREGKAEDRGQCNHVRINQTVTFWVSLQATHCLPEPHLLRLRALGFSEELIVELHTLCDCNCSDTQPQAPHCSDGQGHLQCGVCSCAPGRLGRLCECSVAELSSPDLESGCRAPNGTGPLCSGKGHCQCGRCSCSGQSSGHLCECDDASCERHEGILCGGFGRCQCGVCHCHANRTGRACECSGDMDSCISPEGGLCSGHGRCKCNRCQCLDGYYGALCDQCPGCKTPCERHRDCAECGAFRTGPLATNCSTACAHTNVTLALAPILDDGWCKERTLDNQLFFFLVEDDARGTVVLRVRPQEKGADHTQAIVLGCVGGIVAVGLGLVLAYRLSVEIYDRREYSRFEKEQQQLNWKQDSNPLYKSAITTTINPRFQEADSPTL

[1] = target: Integrin alpha-IIb/beta-3 (Homo sapiens, UniProt P05106+P08514); experiment: Binding affinity to integrin […] expressed in jurkat J6 cells
Chain of Integrin alpha-IIb/beta-3 (P05106 27-788 limits assumed): as the sequence (P05106 27-788 limits assumed) above
Chain of Integrin alpha-IIb/beta-3 (P08514 32-887 limits assumed): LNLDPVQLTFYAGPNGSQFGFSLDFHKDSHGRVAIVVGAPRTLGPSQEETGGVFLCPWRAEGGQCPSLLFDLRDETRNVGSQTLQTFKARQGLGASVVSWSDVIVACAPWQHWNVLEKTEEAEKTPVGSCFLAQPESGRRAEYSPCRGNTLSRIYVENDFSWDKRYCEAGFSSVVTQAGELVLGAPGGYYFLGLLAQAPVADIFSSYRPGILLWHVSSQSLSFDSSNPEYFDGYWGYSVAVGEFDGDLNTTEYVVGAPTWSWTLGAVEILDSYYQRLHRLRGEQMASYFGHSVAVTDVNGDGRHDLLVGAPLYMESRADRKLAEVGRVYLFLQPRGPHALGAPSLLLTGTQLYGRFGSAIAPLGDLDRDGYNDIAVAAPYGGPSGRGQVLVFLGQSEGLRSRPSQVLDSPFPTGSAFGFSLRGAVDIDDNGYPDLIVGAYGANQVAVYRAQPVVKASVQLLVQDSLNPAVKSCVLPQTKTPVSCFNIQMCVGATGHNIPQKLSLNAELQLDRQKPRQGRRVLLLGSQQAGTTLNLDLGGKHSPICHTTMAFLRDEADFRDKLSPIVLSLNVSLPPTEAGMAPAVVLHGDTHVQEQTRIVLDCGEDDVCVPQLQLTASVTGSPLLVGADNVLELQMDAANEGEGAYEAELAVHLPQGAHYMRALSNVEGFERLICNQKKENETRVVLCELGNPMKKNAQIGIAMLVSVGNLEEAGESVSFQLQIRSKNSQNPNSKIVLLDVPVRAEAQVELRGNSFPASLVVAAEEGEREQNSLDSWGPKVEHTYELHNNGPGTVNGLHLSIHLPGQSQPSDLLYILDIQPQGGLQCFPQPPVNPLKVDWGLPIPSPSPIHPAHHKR
Chain of Integrin alpha-IIb/beta-3 (P08514 891-1039 limits assumed): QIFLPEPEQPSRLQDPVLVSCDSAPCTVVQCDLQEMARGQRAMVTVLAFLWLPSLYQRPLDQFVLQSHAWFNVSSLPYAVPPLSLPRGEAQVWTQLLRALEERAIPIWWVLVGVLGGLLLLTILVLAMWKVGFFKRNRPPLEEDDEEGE

Chain of Integrin alpha-4/beta-1 (P05556 whole entry, one chain of several): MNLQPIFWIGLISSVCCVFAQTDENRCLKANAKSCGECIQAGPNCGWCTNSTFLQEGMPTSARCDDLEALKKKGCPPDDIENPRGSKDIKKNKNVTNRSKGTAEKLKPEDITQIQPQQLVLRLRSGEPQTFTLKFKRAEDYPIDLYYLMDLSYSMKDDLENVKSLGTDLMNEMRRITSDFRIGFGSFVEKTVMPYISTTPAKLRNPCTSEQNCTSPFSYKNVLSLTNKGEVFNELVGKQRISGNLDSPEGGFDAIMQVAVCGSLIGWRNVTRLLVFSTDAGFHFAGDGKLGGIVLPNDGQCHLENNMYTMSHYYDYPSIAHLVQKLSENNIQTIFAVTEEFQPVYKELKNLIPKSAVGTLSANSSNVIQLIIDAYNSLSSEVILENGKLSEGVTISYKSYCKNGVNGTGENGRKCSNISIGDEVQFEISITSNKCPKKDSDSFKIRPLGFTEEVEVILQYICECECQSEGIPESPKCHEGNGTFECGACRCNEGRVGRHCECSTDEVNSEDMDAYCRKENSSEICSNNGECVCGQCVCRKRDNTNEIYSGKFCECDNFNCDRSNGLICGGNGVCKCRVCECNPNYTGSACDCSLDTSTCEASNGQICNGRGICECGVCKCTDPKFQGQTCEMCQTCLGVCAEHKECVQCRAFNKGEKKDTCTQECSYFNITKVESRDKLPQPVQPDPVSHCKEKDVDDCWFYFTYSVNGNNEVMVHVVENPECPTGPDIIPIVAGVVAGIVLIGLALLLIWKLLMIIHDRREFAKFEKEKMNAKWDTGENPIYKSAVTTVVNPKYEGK

| Ki (Integrin alpha-4/beta-1) | SMILES | further results |
| --- | --- | --- |
| > 100000 nM | Cc1ccccc1NC(=O)Nc1ccc(-c2cn(Cc3ccc(CCC(=O)O)cc3)cn2)cc1 |  |
| 501 nM | Cc1ccccc1NC(=O)Nc1ccc(-c2ncn(Cc3ccc(CCC(=O)O)cc3)n2)cc1 |  |
| 0.501 nM | COc1cc(-c2cccn(Cc3ccc(CCC(=O)O)cc3)c2=O)ccc1NC(=O)Nc1ccccc1C |  |
| 2 nM | Cc1ccccc1NC(=O)Nc1ccc(-c2cccn(Cc3ccc(CCC(=O)O)cc3)c2=O)cc1 | Ki (Integrin alpha-5/beta-1): > 10 µM; Ki (Integrin alpha-V/beta-3): > 10 µM; Ki (Integrin alpha-V/beta-6): > 10 µM; Ki (Integrin alpha-4/beta-7): > 10 µM; Ki [1]: > 10 µM |
| 63.1 nM | Cc1ccccc1NC(=O)Nc1ccc(CC(=O)Nc2ccc([C@H](C)CC(=O)O)cc2)cc1 |  |
| 398 nM | Cc1ccccc1NC(=O)Nc1ccc(-c2cccn(Cc3ccccc3CCC(=O)O)c2=O)cc1 |  |
| > 1000 nM | COc1cc(-c2nnc(Cc3ccc(CCC(=O)O)cc3)o2)ccc1NC(=O)Nc1ccccc1C |  |
| > 1000 nM | Cc1ccccc1NC(=O)Nc1ccc(-c2cccn(-c3ccc(CCC(=O)O)cc3)c2=O)cc1 |  |
| 25.1 nM | COc1cc(-c2ccn(Cc3ccc(CCC(=O)O)cc3)n2)ccc1NC(=O)Nc1ccccc1C |  |
| 251 nM | Cc1ccccc1NC(=O)Nc1ccc(-c2cccn(Cc3ccc(CC(=O)O)cc3)c2=O)cc1 |  |
| 3.98 nM | Cc1ccccc1NC(=O)Nc1ccc(-c2cccn(Cc3cccc(CCC(=O)O)c3)c2=O)cc1 |  |
| 0.794 nM | COc1cc(CC(=O)Nc2ccc([C@H](C)CC(=O)O)cc2)ccc1NC(=O)Nc1ccccc1C |  |
| 251 nM | Cc1ccccc1NC(=O)Nc1ccc(-c2ccn(Cc3ccc(CCC(=O)O)cc3)n2)cc1 |  |
| 316 nM | Cc1ccccc1NC(=O)Nc1ccc(-c2cccn(Cc3ccc(C(=O)O)cc3)c2=O)cc1 |  |
| > 1000 nM | Cc1ccccc1NC(=O)Nc1ccc(-c2cnn(Cc3ccc(CCC(=O)O)cc3)c2)cc1 |  |
